Experimental data taken from ChEMBL document CHEMBL1201862, “PubChem BioAssay data set” (2004).
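A five-concentration, 48-hour dose response in 96-well plates underlies each endpoint, interpolated linearly between surrounding concentrations. GI50 marks 50% less growth.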 The source made the active and inactive calls. No stated cut-off is given here; in the data, active = GI50 up to about 1.1 µM and inactive = higher.

Legend:
Experiment in all cases: NCI anticancer screen, dose series, 48 h
DLD-1 = test system: DLD-1
HCT-15 = test system: HCT-15
HOP-92 = test system: HOP-92
KM-20L2 = test system: KM-20L2
M19-MEL = test system: M19-MEL
NCI-H226 = test system: NCI-H226
NCI-H23 = test system: NCI-H23
NCI-H522 = test system: NCI-H522
RXF 393 = test system: RXF 393
SF-295 = test system: SF-295
SNB-19 = test system: SNB-19
ACHN = test system: ACHN
786-0 = test system: 786-0
BT-549 = test system: BT-549
DU-145 = test system: DU-145
Hs-578T = test system: Hs-578T
MDA-MB-231 = test system: MDA-MB-231
MDA-MB-435 = test system: MDA-MB-435
MDA-N = test system: MDA-N
T47D = test system: T47D

For O=P1(c2ccccc2)Nc2ccccc2SSc2ccccc2N1, the GI50 (DLD-1) was 17 µM (inactive), the GI50 (HCT-15) was 17 µM and the GI50 (HOP-92) was 15.4 µM (inactive). For the same compound, the GI50 (KM-20L2) was 17.9 µM (inactive), the GI50 (M19-MEL) was 18.7 µM (inactive) and the GI50 (NCI-H226) was 17 µM (inactive). For the same compound, the GI50 (NCI-H23) was 16.6 µM (inactive), the GI50 (NCI-H522) was 15.1 µM (inactive) and the GI50 (RXF 393) was 19.4 µM (inactive). For the same compound, the GI50 (SF-295) was 14.9 µM (inactive) and the GI50 (SNB-19) was 16.3 µM (inactive).
For O=C(OCc1ccccc1)C(Cc1ccccc1)N(Cc1ccccc1)Cc1ccccc1 (centres undefined), the GI50 (ACHN) was 19.5 µM (inactive), the GI50 (DLD-1) was > 100 µM (inactive) and the GI50 (HCT-15) was 43.7 µM. For the same compound, the GI50 (HOP-92) was > 100 µM (inactive), the GI50 (KM-20L2) was > 100 µM (inactive) and the GI50 (M19-MEL) was 76.7 µM (inactive). For the same compound, the GI50 (NCI-H23) was > 100 µM (inactive), the GI50 (NCI-H522) was 25.7 µM (inactive) and the GI50 (RXF 393) was 46.9 µM (inactive). For the same compound, the GI50 (SF-295) was > 100 µM (inactive) and the GI50 (SNB-19) was > 100 µM (inactive).
For COC(=O)C1=C(C)N2CCOC2(C)C(C(=O)OC)C1c1ccc[nH]1 (centres undefined), the GI50 (ACHN) was > 100 µM (inactive), the GI50 (DLD-1) was > 100 µM (inactive) and the GI50 (HOP-92) was > 100 µM (inactive). The GI50 (KM-20L2) was > 100 µM (inactive), the GI50 (M19-MEL) was > 100 µM (inactive) and the GI50 (NCI-H226) was > 100 µM (inactive). The GI50 (NCI-H23) was > 100 µM (inactive), the GI50 (RXF 393) was > 100 µM (inactive) and the GI50 (SF-295) was > 100 µM (inactive). For the same compound, the GI50 (SNB-19) was > 100 µM (inactive).
With Cc1cc(C)cc(Sc2c([N+](=O)[O-])ncn2C)c1 the GI50 (786-0) was 24 µM (inactive), the GI50 (ACHN) was 26.2 µM (inactive) and the GI50 (DLD-1) was 11.9 µM (inactive). For the same compound, the GI50 (HOP-92) was 17.2 µM (inactive), the GI50 (KM-20L2) was 35.2 µM (inactive) and the GI50 (M19-MEL) was 22.6 µM (inactive). For the same compound, the GI50 (NCI-H226) was 6.03 µM (inactive), the GI50 (NCI-H23) was 14.8 µM (inactive) and the GI50 (NCI-H522) was 6.64 µM (inactive). For the same compound, the GI50 (SF-295) was 21.9 µM (inactive) and the GI50 (SNB-19) was 25.7 µM (inactive).
For C=C1C(=O)O[C@H]2[C@H]1[C@@H](OC(=O)C=C(C)C)CC1=C[C@@H](C[C@@]3(C)O[C@@H]23)OC1=O, the GI50 (DLD-1) was 1.6 µM (inactive), the GI50 (HCT-15) was 1.93 µM and the GI50 (HOP-92) was 2.1 µM (inactive). The GI50 (M19-MEL) was 3.08 µM (inactive), the GI50 (NCI-H226) was 21.2 µM (inactive) and the GI50 (NCI-H23) was 3.13 µM (inactive). For the same compound, the GI50 (NCI-H522) was 1.16 µM (inactive), the GI50 (RXF 393) was 1.83 µM (inactive) and the GI50 (SF-295) was 13.4 µM (inactive). The GI50 (SNB-19) was 22.3 µM (inactive).
With Cc1ccc(S(=O)(=O)N(CC(=O)O)c2ccccc2)cc1 the GI50 (786-0) was > 100 µM (inactive), the GI50 (ACHN) was > 100 µM (inactive) and the GI50 (DLD-1) was > 100 µM (inactive). For the same compound, the GI50 (HCT-15) was over 100 µM, the GI50 (HOP-92) was > 100 µM (inactive) and the GI50 (KM-20L2) was > 100 µM (inactive). For the same compound, the GI50 (M19-MEL) was > 100 µM (inactive), the GI50 (NCI-H23) was > 100 µM (inactive) and the GI50 (NCI-H522) was > 100 µM (inactive). The GI50 (RXF 393) was > 100 µM (inactive), the GI50 (SF-295) was > 100 µM (inactive) and the GI50 (SNB-19) was > 100 µM (inactive).
For COc1cccc(C2C(C(=O)O)=C(CO)Oc3cc4c(cc32)OCO4)c1OC (centres undefined), the GI50 (ACHN) was > 100 µM (inactive), the GI50 (DLD-1) was > 100 µM (inactive) and the GI50 (HCT-15) was over 100 µM. The GI50 (HOP-92) was 97.7 µM (inactive), the GI50 (KM-20L2) was > 100 µM (inactive) and the GI50 (M19-MEL) was > 100 µM (inactive). The GI50 (NCI-H226) was > 100 µM (inactive), the GI50 (NCI-H23) was > 100 µM (inactive) and the GI50 (NCI-H522) was > 100 µM (inactive). For the same compound, the GI50 (SF-295) was > 100 µM (inactive) and the GI50 (SNB-19) was > 100 µM (inactive).
COc1cccc2c1C(=O)c1c(O)c3c(c(O)c1C2=O)C[C@@](O)(C(=O)CO)C[C@@H]3OC1CC(N2CCOCC2)C(O)C(C)O1 (some centres undefined) was tested, and the GI50 (ACHN) was 0.00513 µM (active), the GI50 (BT-549) was 0.0525 µM (active) and the GI50 (DLD-1) was 0.00277 µM (active). For the same compound, the GI50 (DU-145) was 0.0497 µM (active), the GI50 (HCT-15) was 0.00315 µM and the GI50 (HOP-92) was 0.00975 µM (active). For the same compound, the GI50 (Hs-578T) was 0.0249 µM (active), the GI50 (KM-20L2) was 0.0025 µM (active) and the GI50 (M19-MEL) was 0.00552 µM (active). For the same compound, the GI50 (MDA-MB-231) was 0.0551 µM (active), the GI50 (MDA-MB-435) was 0.0478 µM (active) and the GI50 (MDA-N) was 0.0328 µM (active). For the same compound, the GI50 (NCI-H226) was 0.00562 µM (active), the GI50 (NCI-H23) was 0.00567 µM (active) and the GI50 (NCI-H522) was 0.0025 µM (active). The GI50 (RXF 393) was 0.00396 µM (active), the GI50 (SF-295) was 0.0025 µM (active) and the GI50 (SNB-19) was 0.0025 µM (active). The GI50 (T47D) was 0.0574 µM (active).
For CC(=O)OC1CC2(O)C(CCC3(C)C(c4ccc(=O)oc4)CCC32O)C2(C)C1=CC(O)C1OC12 (centres undefined), the GI50 (DLD-1) was 0.0506 µM (active), the GI50 (HCT-15) was 0.053 µM and the GI50 (HOP-92) was 0.0538 µM (active). The GI50 (KM-20L2) was 0.067 µM (active), the GI50 (M19-MEL) was 0.0502 µM (active) and the GI50 (NCI-H226) was 0.115 µM (active). For the same compound, the GI50 (NCI-H23) was 0.0275 µM (active), the GI50 (NCI-H522) was 0.025 µM (active) and the GI50 (RXF 393) was 0.0331 µM (active). The GI50 (SF-295) was 0.0366 µM (active) and the GI50 (SNB-19) was 0.118 µM (active).
For Cc1ccc2cc3cccc(C(=O)NCCN(C)C)c3nc2c1, the GI50 (DLD-1) was 0.935 µM (active), the GI50 (HCT-15) was 0.955 µM and the GI50 (HOP-92) was 0.376 µM (active). The GI50 (KM-20L2) was 0.733 µM (active), the GI50 (M19-MEL) was 0.977 µM (active) and the GI50 (NCI-H226) was 0.927 µM (active). The GI50 (NCI-H23) was 1.25 µM (inactive), the GI50 (RXF 393) was 1.01 µM (active) and the GI50 (SF-295) was 0.832 µM (active). For the same compound, the GI50 (SNB-19) was 0.925 µM (active).
For Oc1c(CNCCCN2CCCC2)cc(Cl)c2cccnc12, the GI50 (DLD-1) was 3.22 µM (inactive), the GI50 (HCT-15) was 2.09 µM and the GI50 (HOP-92) was 7 µM (inactive). The GI50 (KM-20L2) was 3.78 µM (inactive), the GI50 (M19-MEL) was 2.52 µM (inactive) and the GI50 (NCI-H226) was 3.15 µM (inactive). For the same compound, the GI50 (NCI-H23) was 11 µM (inactive), the GI50 (NCI-H522) was 4.22 µM (inactive) and the GI50 (RXF 393) was 11.5 µM (inactive). For the same compound, the GI50 (SF-295) was 2.19 µM (inactive) and the GI50 (SNB-19) was 6.46 µM (inactive).
With O=C1OC(c2ccccc2)=N/C1=C\c1ccc(Oc2ccc(Cl)c(Cl)c2)cc1 the GI50 (786-0) was 29.9 µM (inactive), the GI50 (ACHN) was 63.1 µM (inactive) and the GI50 (DLD-1) was 48.9 µM (inactive). For the same compound, the GI50 (HCT-15) was 43.2 µM, the GI50 (HOP-92) was 55 µM (inactive) and the GI50 (KM-20L2) was 56.6 µM (inactive). The GI50 (M19-MEL) was 36.9 µM (inactive), the GI50 (NCI-H23) was 35.4 µM (inactive) and the GI50 (NCI-H522) was 30.1 µM (inactive). The GI50 (RXF 393) was 25.8 µM (inactive), the GI50 (SF-295) was 76.4 µM (inactive) and the GI50 (SNB-19) was 35.5 µM (inactive).
